Results: US7622480B2, “Azaindolylpiperidine derivatives as antihistaminic and antiallergic agents” (Laboratorios Almirall S.A., priority 2002, dated 2009)

Assays:
[1] = target: T1, histamine H1 receptor (Cavia porcellus, UniProt P31389); experiment: Histamine-H1 receptor binding assay; conditions: guinea pig cerebellum membranes, 0.7 nM [3H]-mepyramine, 30 min at 30° C.
T1 construct: performed in guinea pig cerebellum membranes as described previously; from tissue; host or cells: guinea pig cerebellum membranes
Procedure: (1) In vitro histamine H1 receptor binding assay, to measure the affinity of the compounds. […] Briefly, the membrane suspensions (160 μg/ml) were incubated at 30° C. with 0.7 nM [^3H]-mepyramine and different concentrations of the test compounds in a final volume of 250 μl. Binding reactions were terminated by filtration after 30 min of incubation and the bound radioactivity was determined. The non-specific binding was measured in the presence of 10 μM of promethazine. The affinity of each test compound to the receptor was determined by using at least six different concentrations run in duplicate. IC50 values were obtained by non-linear regression by use of SAS on a DEC AXP computer.

[2] = tested on: Histamine-induced skin vascular permeability in rats; experiment: Histamine-induced skin vascular permeability in rats; format: in vivo; conditions: Rattus norvegicus, 4 h; Male Wistar rats, oral, dose of 3 mg/Kg, four hours after administration, compared with vehicle treated group
Procedure: Either one, four, eight or 24 hours later the rats were lightly anaesthetized with ether and a cutaneous reaction was induced by two intradermal injections of 50 μl of histamine (100 μg/ml) onto the back, followed by a intravenous injection of 3 ml/kg of Evan's Blue (5 mg/ml), both dissolved in saline. Sixty minutes later, the rats were killed by cervical dislocation and the back skin dissected free. The diameter (in millimetres) of the papule was measured in two directions and the area was calculated.

T1 sequence (P31389 whole entry): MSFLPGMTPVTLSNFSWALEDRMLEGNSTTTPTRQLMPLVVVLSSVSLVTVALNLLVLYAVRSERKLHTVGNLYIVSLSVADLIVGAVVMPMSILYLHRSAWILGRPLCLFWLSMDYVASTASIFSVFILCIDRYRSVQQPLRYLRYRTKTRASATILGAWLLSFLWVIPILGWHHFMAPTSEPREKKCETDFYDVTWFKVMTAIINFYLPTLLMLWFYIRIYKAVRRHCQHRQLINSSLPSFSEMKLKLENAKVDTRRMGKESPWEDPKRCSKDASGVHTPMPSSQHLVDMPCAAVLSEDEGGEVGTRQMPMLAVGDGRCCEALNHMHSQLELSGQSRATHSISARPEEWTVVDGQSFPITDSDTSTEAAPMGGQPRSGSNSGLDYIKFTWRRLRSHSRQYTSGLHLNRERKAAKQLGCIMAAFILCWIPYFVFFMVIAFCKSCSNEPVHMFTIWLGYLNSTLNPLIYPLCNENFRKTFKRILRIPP

Structure (SMILES) | IC50 [1] [µM] | inhibition in vivo at 3 mg/kg [2] [%]
COCCn1cc(C2CCN(Cc3cccc(C(=O)O)c3)CC2)c2cccnc21 [Example 1, 3-{4-[1-(2-methoxyethyl)-1H-pyrrolo[2,3-b]pyridin-3-yl]piperidin-1-ylmethyl}benzoic acid] | 0.24 | > 50
O=C(O)c1ccccc1OCCN1CCC(c2cn(Cc3ccoc3)c3ncccc23)CC1 [Example 3, 2-{2-[4-(1-furan-3-ylmethyl-1H-pyrrolo[2,3-b]pyridin-3-yl)piperidine-1-yl]ethoxy}benzoic acid] | 0.225 | > 50
CCOCCn1cc(C2CCN(CCOc3ccccc3C(=O)O)CC2)c2cccnc21 [Example 6] | 0.19 | > 50
O=C(O)c1cccc(CN2CCC(c3cn(Cc4ccco4)c4ncccc34)CC2)c1 [Example 9, 3-[4-(1-furan-2-ylmethyl-1H-pyrrolo[2,3-b]pyridin-3-yl)piperidin-1-ylmethyl]-benzoic acid] | 0.15 | > 50
O=C(O)c1ccccc1OCCN1CCC(c2cn(Cc3ccsc3)c3ncccc23)CC1 [Example 14, 2-{2-[4-(1-thiophen-3-ylmethyl-1H-pyrrolo[2,3-b]pyridin-3-yl)-piperidin-1-yl]-ethoxy}-benzoic acid] | 0.51 | 
O=C(O)c1ccccc1OCCN1CCC(c2cn(Cc3ccc(Cl)s3)c3ncccc23)CC1 [Example 17, 2-(2-{4-[1-(5-chlorothiophen-2-ylmethyl)-1H-pyrrolo[2,3-b]pyridin-3-yl]-piperidin-1-yl}-ethoxy)-benzoic acid] | 0.265 | 
CCCCn1cc(C2CCN(Cc3ccc(OC)c(C(=O)O)c3)CC2)c2cccnc21 [Example 24, 5-[4-(1-butyl-1H-pyrrolo[2,3-b]pyridin-3-yl)piperidin-1-ylmethyl]-2-methoxybenzoic acid] | 0.475 | > 50
CCCCn1cc(C2CCN(Cc3cccc(C(=O)O)c3)CC2)c2cccnc21 [Example 26, 3-[4-(1-butyl-1H-pyrrolo[2,3-b]pyridin-3-yl)piperidin-1-ylmethyl]-benzoic acid] | 0.275 | 
CCOCCn1cc(C2CCN(CCOc3c(OC)cccc3C(=O)O)CC2)c2cccnc21 [Example 37, 2-(2-{4-[1-(2-ethoxyethyl)-1H-pyrrolo[2,3-b]pyridin-3-yl]-piperidin-1-yl}-ethoxy)-3-methoxybenzoic acid] | 0.155 | 
O=C(O)c1cc(CN2CCC(c3cn(Cc4ccoc4)c4ncccc34)CC2)ccc1F [Example 45, 2-fluoro-5-[4-(1-furan-3-ylmethyl-1H-pyrrolo[2,3-b]pyridin-3-yl)-piperidin-1-ylmethyl]-benzoic acid] | 0.255 | 
COc1ccc(C(=O)O)c(OCCN2CCC(c3cn(Cc4ccco4)c4ncccc34)CC2)c1 [Example 50, 2-{2-[4-(1-furan-2-ylmethyl-1H-pyrrolo[2,3-b]pyridin-3-yl)-piperidin-1-yl]-ethoxy}-4-methoxybenzoic acid] | 0.048 | 
CCCCn1cc(C2CCN(CCOc3cc(Cl)ccc3C(=O)O)CC2)c2cccnc21 [Example 63, 2-{2-[4-(1-butyl-1H-pyrrolo[2,3-b]pyridin-3-yl)-piperidin-1-yl]-ethoxy}-4-chlorobenzoic acid] | 0.11 | 
CCOCCn1cc(C2CCN(CCOc3cc(Cl)ccc3C(=O)O)CC2)c2ccncc21 [Example 73, 4-chloro-2-(2-{4-[1-(2-ethoxyethyl)-1H-pyrrolo[2,3-c]pyridin-3-yl]-piperidin-1-yl}-ethoxy)-benzoic acid] | 0.111 | 
CCCCn1cc(C2CCN(CCOc3cc(Cl)ccc3C(=O)O)CC2)c2ccncc21 [Example 84, 2-{2-[4-(1-butyl-1H-pyrrolo[2,3-c]pyridin-3-yl)piperidin-1-yl]-ethoxy}-4-chlorobenzoic acid] | 0.074 | 
COc1ccc(CN2CCC(c3cn(Cc4ccco4)c4cnccc34)CC2)cc1C(=O)O [Example 96, 5-[4-(1-furan-2-ylmethyl-1H-pyrrolo[2,3-c]pyridin-3-yl)-piperidin-1-ylmethyl]-2-methoxybenzoic acid] | 0.805 | 

More lines, in order of falling IC50 [1], values ahead:

IC50 [1] [µM] | Structure (SMILES) | inhibition in vivo at 3 mg/kg [2] [%]
0.695 | CCOCCn1cc(C2CCN(Cc3ccc(OC)c(C(=O)O)c3)CC2)c2cccnc21 [Example 5] | > 50
0.695 | COc1cccc(C(=O)O)c1OCCN1CCC(c2cn(Cc3ccc(Cl)s3)c3ncccc23)CC1 [Example 54, 2-(2-{4-[1-(5-chlorothiophen-2-ylmethyl)-1H-pyrrolo[2,3-b]pyridin-3-yl]-piperidin-1-yl}-ethoxy)-3-methoxybenzoic acid] | 
0.675 | COc1ccc(C(=O)O)c(OCCN2CCC(c3cn(Cc4ccoc4)c4cnccc34)CC2)c1 [Example 76, 2-{2-[4-(1-furan-3-ylmethyl-1H-pyrrolo[2,3-c]pyridin-3-yl)-piperidin-1-yl]-ethoxy}-4-methoxybenzoic acid] | 
0.56 | O=C(O)c1cccc(CN2CCC(c3cn(Cc4ccoc4)c4ncccc34)CC2)c1 [Example 2, 3-[4-(1-furan-3-ylmethyl-1H-pyrrolo[2,3-b]pyridin-3-yl)piperidin-1-ylmethyl]benzoic acid] | > 50
0.52 | O=C(O)c1cccc(CN2CCC(c3cn(CC4CC4)c4ncccc34)CC2)c1 [Example 28, 3-[4-(1-cyclopropylmethyl-1H-pyrrolo[2,3-b]pyridin-3-yl)-piperidin-1-ylmethyl]-benzoic acid] | 
0.505 | O=C(O)c1ccccc1OCCN1CCC(c2cn(Cc3cccs3)c3ncccc23)CC1 [Example 11, 2-{2-[4-(1-thiophen-2-ylmethyl-1H-pyrrolo[2,3-b]pyridin-3-yl)-piperidin-1-yl]-ethoxy}benzoic acid] | 
0.5 | COc1ccc(CN2CCC(c3cn(Cc4ccc(Cl)s4)c4ncccc34)CC2)cc1C(=O)O [Example 19, 5-{4-[1-(5-chlorothiophen-2-ylmethyl)-1H-pyrrolo[2,3-b]pyridin-3-yl]-piperidin-1-ylmethyl}2-methoxybenzoic acid] | > 50
0.405 | O=C(O)c1ccccc1OCCN1CCC(c2cn(Cc3ccco3)c3ncccc23)CC1 [Example 8, 2-{2-[4-(1-furan-2-ylmethyl-1H-pyrrolo[2,3-b]pyridin-3-yl)-piperidin-1-yl]-ethoxy}-benzoic acid] | > 50
0.403 | CCOCCn1cc(C2CCN(Cc3cccc(C(=O)O)c3)CC2)c2cccnc21 [Example 4, 3-{4-[1-(2-ethoxyethyl)-1H-pyrrolo[2,3-b]pyridin-3-yl]piperidin-1-ylmethyl}benzoic acid] | > 50
0.38 | CCCCn1cc(C2CCN(Cc3ccc(F)c(C(=O)O)c3)CC2)c2cccnc21 [Example 64, 5-[4-(1-butyl-1H-pyrrolo[2,3-b]pyridin-3-yl)-piperidin-1-ylmethyl]-2-fluorobenzoic acid] | 
0.335 | COc1ccc(CN2CCC(c3cn(Cc4ccco4)c4ncccc34)CC2)cc1C(=O)O [Example 10, 5-[4-(1-furan-2-ylmethyl-1H-pyrrolo[2,3-b]pyridin-3-yl)piperidin-1-ylmethyl]-2methoxy-benzoic acid] | > 50
0.315 | O=C(O)c1cccc(CN2CCC(c3cn(Cc4ccc(Cl)s4)c4ncccc34)CC2)c1 [Example 18, 3-{4-[1-(5-chlorothiophen-2-ylmethyl)-1H-pyrrolo[2,3-b]pyridin-3-yl]-piperidin-1-ylmethyl}-benzoic acid] | 
0.275 | COCCn1cc(C2CCN(CCOc3cccc(OC)c3C(=O)O)CC2)c2cccnc21 [Example 23, 2-methoxy-6-(2-{4-[1-(2-methoxyethyl)-1H-pyrrolo[2,3-b]pyridin-3-yl]-piperidin-1-yl}-ethoxy)benzoic acid] | 
0.235 | COCCn1cc(C2CCN(Cc3c(OC)ccc(C(=O)O)c3OC)CC2)c2cccnc21 [Example 22, 2,4-dimethoxy-3-{4-[1-(2-methoxyethyl)-1H-pyrrolo[2,3-b]pyridin-3-yl]-piperidin-1-ylmethyl}-benzoic acid] | 
0.22 | CCCCn1cc(C2CCN(CCOc3ccccc3C(=O)O)CC2)c2ccncc21 [Example 81, 2-{2-[4-(1-butyl-1H-pyrrolo[2,3-c]pyridin-3-yl)-piperidin-1-yl]-ethoxy}-benzoic acid] | 
0.205 | COc1ccc(CN2CCC(c3cn(Cc4ccoc4)c4ncccc34)CC2)cc1C(=O)O [Example 7, 5-[4-(1-furan-3-ylmethyl-1H-pyrrolo[2,3-b]pyridin-3-yl)-piperidin-1-ylmethyl]-2-methoxybenzoic acid] | > 50
0.12 | COc1ccc(C(=O)O)c(OCCN2CCC(c3cn(Cc4ccoc4)c4ncccc34)CC2)c1 [Example 43, 2-{2-[4-(1-furan-3-ylmethyl-1H-pyrrolo[2,3-b]pyridin-3-yl)piperidin-1-yl]-ethoxy}-4-methoxybenzoic acid] | 
0.105 | O=C(O)c1ccc(Cl)cc1OCCN1CCC(c2cn(Cc3ccc(Cl)s3)c3cnccc23)CC1 [Example 92, 4-chloro-2-(2-{4-[1-(5-chlorothiophen-2-ylmethyl)-1H-pyrrolo[2,3-c]pyridin-3-yl]-piperidin-1-yl}-ethoxy)-benzoic acid] | 
